In general, Emax refers to the greatest response seen or fitted, relative to the assay's reference. As usually defined, the EC50 is the concentration needed to bring the measured effect to its halfway point. By IC50 is commonly meant the concentration needed to halve the response being measured. A high value points to weaker potency in that assay. Usually Kd stands for the constant that tells how readily two partners part at equilibrium.

One assay concerns the target T1, human NLuc‐A3R (Homo sapiens, UniProt P0DMS8).
T1 construct: expressed in transfected cells
T1 sequence (P0DMS8 1-318): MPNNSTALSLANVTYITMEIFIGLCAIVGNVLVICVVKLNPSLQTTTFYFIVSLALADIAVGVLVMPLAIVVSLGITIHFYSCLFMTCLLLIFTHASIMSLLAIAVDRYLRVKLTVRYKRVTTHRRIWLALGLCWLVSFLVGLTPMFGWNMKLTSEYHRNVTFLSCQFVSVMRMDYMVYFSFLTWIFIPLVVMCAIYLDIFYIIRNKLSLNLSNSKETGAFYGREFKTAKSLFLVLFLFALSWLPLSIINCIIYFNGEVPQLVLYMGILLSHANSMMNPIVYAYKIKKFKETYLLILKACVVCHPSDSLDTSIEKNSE
The assay is described as follows: NanoBRET saturation binding in stable HEK293G cell line expressing NLuc‐A3R. The conditions noted are these: non‐specific defined with 1 μM MRS‐1220; PSB603‐BY630 at concentrations up to 500 nM. The protocol: (§1) Saturation and competition binding assays were performed as previously described.[36] Briefly, cells were seeded in 96‐well white clear‐bottomed Greiner plates pre‐treated with 10 μg/mL poly‐D‐lysine (Sigma‐Aldrich, Missouri USA) at a density of 30 000–35 000 cells per well in DMEM supplemented with 10% FBS. […] The NanoLuc substrate, furimazine (Promega Corporation, Wisconsin, USA), was then added to each well (1:400 dilution) and the plate was incubated for 10 min in the dark at 37°C. The resulting bioluminescence resonance energy transfer (BRET) was measured using a PHERAstar FS plate reader (BMG Labtech) at 37°C. For each well, filtered light emissions at 460 nm (80 nm bandpass) and >610 nm (longpass) for the BODIPY630/650 ligand were simultaneously measured. BRET ratios were calculated by dividing the 610 nm emission by the 460 nm emission. All conditions were performed in 2–6 replicates within each plate. For kinetic experiments, cells were preincubated for 10 min with 1:400 dilution of furimazine prior to addition of 200 nM PSB603‐BY630 and BRET ratios determined every 0.5 min. At 60 min, 10 μM MRS‐1706 was added and the ligand‐binding kinetics followed for a further 60 min.
On the technique in general: Bioluminescence resonance energy transfer reports proximity on the nanometre scale.

Assay [1] has as its target T2, NLuc‐A2BR (Homo sapiens, UniProt P29275).
T2 construct: expressed in transfected cells
T2 sequence (P29275 1-332): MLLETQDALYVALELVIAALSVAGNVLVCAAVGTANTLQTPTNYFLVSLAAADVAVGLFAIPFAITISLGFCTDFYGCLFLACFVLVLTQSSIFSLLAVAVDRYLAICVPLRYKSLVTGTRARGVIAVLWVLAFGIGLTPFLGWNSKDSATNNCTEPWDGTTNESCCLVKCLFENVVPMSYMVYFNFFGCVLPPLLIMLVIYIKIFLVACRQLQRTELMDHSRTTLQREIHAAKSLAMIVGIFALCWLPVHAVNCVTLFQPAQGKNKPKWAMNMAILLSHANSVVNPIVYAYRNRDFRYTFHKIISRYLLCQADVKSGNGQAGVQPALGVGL
The assay is described as follows: cAMP GloSensor luminescence assay in HEK293G cells overexpressing NLuc‐A2BR. Format: cell-based. The conditions noted are these: agonist alone, n=5. The protocol:
(§2) The cAMP GloSensor™ luminescence assay was performed according to the manufacturer's instructions (Promega Corporation, Madison, WI, USA). Briefly, after 24 h incubation at 37°C and 5% CO2 after cell plating (40 000 cells/well in 100 μL), medium was aspirated from each well of the 96‐well plate. Cells were incubated in 50 μL HEPES buffered saline solution (HBSS; 2 mM sodium pyruvate, 145 mM NaCl, 10 mM D‐glucose, 5 mM KCl, 1 mM MgSO4.7H2O, 10 mM HEPES, 1.3 mM CaCl2, 1.5 mM NaHCO3 in double‐distilled water, pH 7.45) containing 3% GloSensor™ cAMP reagent at 37°C for 1.5 h. For agonist studies, an initial baseline luminescence read was made at time zero, the plate was then removed from the plate‐reader and a further 50 μL HBSS containing agonist (2× final concentration) or HBSS (vehicle control) added. Luminescence was measured on an open channel (gain of 3600) immediately after these additions, and then continuously over 60 min, reading each well once every minute, by a PHERAstar FSX microplate reader (BMG Labtech, Offenburg, Germany) at 37°C. Increases in luminescence are indicative of intracellular cAMP accumulation, thus the temporal changes in relative cytosolic cAMP concentration were measured upon agonist or vehicle addition. Antagonist action was determined following 30 min pre‐incubation of HBSS in the presence of 20 and 200 nM PSB603‐BY630 and read as above. All conditions were performed in triplicates within each plate.

The next assay concerns the target T3, endogenous A2BR (Homo sapiens, UniProt P29275).
T3 construct: HEK293G cells that express the cAMP biosensor Glosensor also endogenously express both A2BR and A2AR; host or cells: HEK293G
T3 sequence (P29275 1-332): T2 sequence (P29275 1-332)
Briefly: cAMP GloSensor luminescence assay in HEK293G cells endogenously expressing A2BR. Format: cell-based. The conditions noted are these: agonist alone, n=5. The protocol:
as §2

Assay [2] concerns the target T2, NLuc‐A2BR. Briefly: NanoBRET competition binding against 50 nM PSB603‐BY630 in HEK293G cells expressing NLuc‐A2BR. The conditions noted are these: for Ki: read-out: Appararent Log K i (converted). The protocol:
as §1, with “min.” for “min. At 60 min, 10 μM MRS‐1706 was added and the ligand‐binding kinetics followed for a further 60 min.”
The IC 50 values were then used to calculate the K i values using the Cheng‐Prussoff equation: Ki=IC50/1+L/KD where [L] is the concentration of PSB603‐BY630 in nM, and K D is the dissociation constant of that fluorescent ligand in nM.

Assay [3] concerns the target T2, NLuc‐A2BR. The assay is described as follows: NanoBRET imaging of PSB603‐BY630 binding to HEK293G cells expressing NLuc‐A2BR. The conditions noted are these: 100 nM PSB603‐BY630, co‐incubation with 10 μM MRS‐1706, 30 min. The protocol: Cells were seeded onto 35 mm Cellview 4‐quadrant culture dishes (Greiner Bio‐one), which have a 10 mm glass coverslip bottom, in DMEM supplemented with 10% FBS at a density of 100 000 cells per quadrant 2 days prior to experiment in total volume of 500 μL. On the day of the experiment medium was replaced with HBSS in the presence or absence of PSB603‐BY630 (100 nM) and/or MRS1706 (10 μM) and incubated for 30 min at 37°C before imaging. Bioluminescence and NanoBRET imaging were performed on an Olympus LuminoView 200 microscope with a 60× NA1.42 oil immersion objective with a 0.5× tube lens, following addition of furimazine (1:800 dilution) (Promega). Images were captured by a C9100‐23B IMAGE EMX2 camera (Hamamatsu, Japan) with gain set at 200 for all channels. Filtered bioluminescence was captured using a 438/24 bandpass filter, BRET in the presence of PSB603‐BY630 was captured using a 650/50 nm bandpass filter. For the NLuc‐A2BR stable cell line exposure times were set at 10 s for filtered bioluminescence and 75 sec for BRET. Raw intensity values were determined for three regions of interest per experiment per condition and the BRET ratio calculated by dividing the raw intensity recorded from the BRET capture by the filtered bioluminescence capture. Corrected BRET ratios were determined by subtracting the BRET ratio determined from a control quadrant (HBSS alone). […]

The target of a further assay is human A2BR. Also noted: method as in PMID 23286920. The conditions noted are these: membranes from CHO cells expressing the human A2BR ref 13; cited from earlier work.

On to `COc1ccc(-n2nc3c(NC(=O)CCC(=O)NCCOCCOCCNC(=O)CCCCCNC(=O)COc4ccc(/C=C/C5=[N+]6C(=Cc7ccc(-c8cccs8)n7[B-]6(F)F)C=C5)cc4)nc4ccccc4n3c2=O)cc1` [AV039], for which the “specific binding to NLuc‐A3R” value at human NLuc‐A3R is on record as “high affinity specific binding”.
With `N#Cc1c(N)nc(SCC(N)=O)c(C#N)c1-c1ccc(OCC2CC2)cc1` [BY 60–6583, 2‐[[6‐Amino‐3,5‐dicyano‐4‐[4‐(cyclopropylmethoxy)phenyl]‐2‐pyridinyl]thio]‐acetamide], the Emax on NLuc‐A2BR [1] (HEK293G, read-out: HEK293G A2BAR EMAX (% of response to 0.3 μM BAY‐60‐6583)) was found to be 100 ± 1.29%; at endogenous A2BR (HEK293G, read-out: Endogenous HEK293G EMAX (% of response to 3 μM BAY‐60‐6583)), 104 ± 3.09%. Also, the EC50 is 18.6 nM at NLuc‐A2BR [1] (read-out: HEK293G A2BAR Log EC50 (converted)) and 129 nM on endogenous A2BR (read-out: Endogenous HEK293G Log EC50 (converted)).
`O=C(Cc1ccccc1)Nc1nc2ccc(Cl)cc2c2nc(-c3ccco3)nn12` [MRS1220, N‐[9‐Chloro‐2‐(2‐furanyl)[1,2,4]‐triazolo[1,5‐c]quinazolin‐5‐yl]benzene acetamide]: the “Appararent Log K i” value at NLuc‐A2BR [2] (calculated from IC50 (Cheng‐Prussoff) assuming competition with 50 nM PSB603‐BY630 for the same site, mean ± S.E.M., n=5) is −6.40 ± 0.19. Moreover, the “Log IC50” value on NLuc‐A2BR [2] (inhibition of the binding of 50 nM PSB603‐BY630, mean ± S.E.M., n=5) is recorded as −5.82 ± 0.19.
Turning to `CCCn1c(=O)c2[nH]c(-c3ccc(OCC(=O)Nc4ccc(C(C)=O)cc4)cc3)nc2n(CCC)c1=O` [MRS1706, N‐(4‐Acetylphenyl)‐2‐[4‐(2,3,6,7‐tetrahydro‐2,6‐dioxo‐1,3‐dipropyl‐1H‐purin‐8‐yl)phenoxy]acetamide], the “effect on PSB603‐BY630 binding to cell surface receptors (BRET imaging)” value on NLuc‐A2BR [3] is “completely prevented”. Also, at NLuc‐A2BR [2], the IC50 is 36.3 nM and the Ki is 9.77 nM.
`COc1ccc(CCCn2ncc3c2nc(N)n2nc(-c4ccco4)nc32)cc1` [SCH442416, 2‐(2‐Furanyl)‐7‐[3‐(4‐methoxyphenyl)propyl]‐7H‐pyrazolo[4,3‐e][1,2,4]triazolo[1,5‐c]pyrimidin‐5‐amine]: on NLuc‐A2BR [2], the concentration for half-maximal inhibition (IC50) is 9550 nM and the Ki was 2570 nM.
Take `O[C@H]1CC[C@H](Nc2nc(-c3ccccc3)nc3[nH]ccc23)CC1` [SLV320, trans‐4‐[(2‐Phenyl‐7H‐pyrrolo[2,3‐d]pyrimidin‐4‐yl)amino]cyclohexanol]: at NLuc‐A2BR [2], the half-maximal inhibitory concentration (IC50) was 6460 nM and the Ki was 1740 nM.
Consider `CCCn1c(=O)[nH]c2nc(-c3ccc(S(=O)(=O)N4CCN(c5ccc(Cl)cc5)CC4)cc3)[nH]c2c1=O` [[^3H]‐PSB603], for which, on human A2BR, the Kd was 3.6 nM.

Source of the values: PMC11191602, “A novel and selective fluorescent ligand for the study of adenosine A2B receptors” (Pharmacology Research & Perspectives, 2024).
